TGI and GI50 data for 26 molecules are collected here from PubChem BioAssay (NCI).

The structures appear in SMILES notation. Values joined by “and” are separate entries in the source; they are usually repeats but may differ in a detail not shown here. Equal values may be shown once.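 Exposure lasted 48 hours, with cells grown in 96-well plates and compounds tested at five concentrations. GI50: concentration for 50% inhibition of growth. At the TGI there is no net growth.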

Holding throughout (assay): inhibition of tumour cell growth, NCI panel, 48 h
The subject of assay [1] is EKVX NSCLC.
The subject of assay [2] is RPMI-8226 leukemia.
Assay [3] relates to HCT-116 colon.
Assay [4] concerns UO-31 renal.
Assay [5] has as its system SN12C renal.
For assay [6], the system named is OVCAR-5 ovarian.
The subject of assay [7] is NCI-H460 lung.
In assay [8] the test system is MDA-MB-435.
The subject of assay [9] is MCF7 breast.
For assay [10], the system named is PC-3 prostate.

`CC1(C2CCC3(C)OC3C2)CO1` (stereo not given): the TGI in assay [1], in [2], in assay [3], in assay [4], in assay [5] and in [6] was more than 100 µM throughout. In assay [7], this molecule had a TGI of more than 100 µM.
For the molecule `COC(=O)c1c(-c2ccc(Cl)cc2)cc2c3ccccc3n(C)c2c1C(=O)OC`, the TGI in [1], in assay [8], in assay [3], in assay [4], in assay [5] and in assay [6] was more than 100 µM throughout. Further, the TGI in assay [7], in assay [9] and in assay [10] was more than 100 µM throughout.
In the case of `COc1ccc(CCN2CCc3c(C)c(C#N)c4nc5ccccc5n4c32)cc1OC`, the TGI in assay [8] is 45 µM; in assay [3], more than 100 µM; in assay [4], more than 100 µM; in assay [5] it was more than 100 µM; in assay [6], more than 100 µM; in assay [7], more than 100 µM. The TGI in [9] and in assay [10] was more than 100 µM throughout.
As to `O=C1C=CC(=O)c2c(O)c(N3CCN(CCOCCO)CC3)c(Cl)c(O)c21`, the GI50 is 1.9 µM [middle of 4 runs] in [1]; 0.197 µM in [8]; 277 nM [middle of 4 runs] in [2]; 333 nM [middle of 4 runs] in assay [3]; 1.26 µM in assay [6]; 1.57 µM in assay [7]. Besides, in [10], the GI50 is 1.67 µM [middle of 4 runs]. The TGI is 4.4 µM [middle of 4 runs] in assay [1]; 0.907 µM and 0.486 µM in assay [8]; 1.01 µM [middle of 4 runs] in [2]; 801 nM [middle of 4 runs] in [3]; 2.07 µM [middle of 4 runs] in [5]; 3.32 µM [middle of 4 runs] in assay [6]. In addition, in [10], the TGI was 3.23 µM [middle of 4 runs].
Consider `CCN(CC)CCN(C(=O)C(C)(C)C)c1ccccc1N`, for which the TGI in [1], in assay [2], in assay [3], in assay [4], in assay [5] and in assay [6] was more than 100 µM in each case. Moreover, the TGI in assay [7], in assay [9] and in [10] was more than 100 µM throughout.
Regarding `C/C(=N\Nc1nc2ccccc2[nH]1)c1cc2ccccc2cn1`, the TGI came out at 1.35 µM in assay [1]; 1.1 µM in [8]; 0.599 µM in assay [2]; 1.04 µM in assay [3]; 1.38 µM in assay [4]; 1.06 µM in [5]. The TGI in assay [6] was determined as 2.5 µM; in [7], 1.45 µM; in assay [9], 2.31 µM.
Consider `CSc1nc(NC(C)C)c2c(n1)Sc1nc3ccccc3n1C2O` (stereo not given), for which the TGI in assay [1] is more than 100 µM; in assay [8], 5.02 µM; in assay [2] it was 12.5 µM; in assay [3], more than 100 µM; in assay [4], 27.8 µM; in assay [5], more than 100 µM. Besides, the TGI in [9] and in [10] was more than 100 µM each time.
With `COC(=O)C1=C(O)C(C(=O)OC)[C@]2(O)[C@H](C(=O)OC)[C@H]1C[C@@H](c1ccc([N+](=O)[O-])cc1)[C@H]2C(=O)OC` (stereo not given in full), the TGI was more than 100 µM in [1]; more than 100 µM in assay [8]; 32.3 µM in assay [3]; 47.7 µM in assay [5]; 65.9 µM in assay [6]; more than 100 µM in assay [7]. Besides, in [10], the TGI turned out to be 51.9 µM.
Turning to `Cc1ccc(S(=O)(=O)N(CC(O)COc2ccccc2)c2ccc(F)cc2F)cc1` (stereo not given), the TGI in assay [1] amounted to 35.7 µM; in [8], 31.4 µM; in assay [2], 34.5 µM; in assay [4], 26.9 µM; in assay [5] it was 34.2 µM; in assay [6], 34.1 µM. For the same molecule, the TGI is 33.7 µM in assay [7] and 25.3 µM in assay [10].
Consider `CO[C@]1(CN2CCN3CCCC[C@@H]3C2)/C=C/C[C@H](C)[C@@H](C)S(=O)(=O)NC(=O)c2ccc3c(c2)N(C[C@@H]2CC[C@H]21)C[C@@]1(CCCc2cc(Cl)ccc21)CO3`, for which the GI50 is 1.55 µM in assay [1]; 1.05 µM in [8]; 0.0185 µM in assay [2]; 2.01 µM in [3]; 1.43 µM in assay [4]; 1.6 µM in assay [5]. The GI50 in assay [6] was 1.93 µM. Besides, the TGI worked out at 5.1 µM in assay [1]; 2.42 µM in [8]; 41.8 µM in assay [2]; 4.79 µM in assay [3]; 2.93 µM in assay [4]; 3.08 µM in [5]. Besides, the TGI in assay [6] turned out to be 3.8 µM.
Take `COC(=O)[C@@H]1CN(C(=O)c2ccccc2)C(=O)N1C(=O)OCc1ccccc1`: the TGI in [1], in [8], in assay [2], in assay [3], in [4] and in assay [5] was more than 100 µM in each case. Also, the TGI in assay [6], in assay [7] and in assay [9] was more than 100 µM in each case.
For `CC(=O)O[C@H]1CC[C@@]2(C)[C@H](CC[C@@H]3[C@@H]2CC[C@]2(C)[C@@H](c4ccc(=O)oc4)C[C@H]4O[C@]342)C1`, the TGI in [1] stood at 2.39 µM; in [2], 5.1 µM; in assay [3] it was 4.63 µM; in assay [4] it was 3.18 µM; in [5] it was 9.49 µM; in assay [6], 12.2 µM. Further, the TGI in assay [7] was determined as 0.878 µM; in [9], 22.1 µM.
As for `CC(=O)CC(=O)CCC(=O)O`, the TGI in [1], in assay [3], in [4], in [5], in assay [6] and in assay [7] was more than 100 µM throughout.
As for `CCOP(=O)(OCC)/C(C#N)=C/c1cccn1Cc1ccccc1`, the TGI was more than 100 µM in [1]; 42 µM in assay [8]; 39.7 µM in assay [3]; 99.7 µM in [4]; more than 100 µM in [5]; more than 100 µM in assay [6]. Also, the TGI in assay [7], in assay [9] and in [10] was more than 100 µM throughout.
For `C=CC1CN2CCC1CC2C(O)c1ccnc2ccccc12` (stereo not given), the GI50 in [1] was more than 100 µM; in assay [4] it was 36.8 µM; in assay [9], 5.05 µM. Moreover, the TGI in assay [1], in assay [8], in assay [3], in assay [4], in assay [5] and in [6] was more than 100 µM in each case. The TGI in [7], in assay [9] and in [10] was more than 100 µM each time.
For `C=C(C)[C@@H]1CC[C@]2(C(=O)O)CC[C@]3(C)[C@H](CCC4[C@@]5(C)CC[C@H](C(=O)/C=C/c6ccc(O)c(O)c6)C(C)(C)[C@@H]5CC[C@]43C)[C@@H]12` (stereo not given in full), the TGI in assay [1] was more than 100 µM; in assay [8], 16.7 µM; in assay [3], more than 100 µM; in assay [4], 12.9 µM; in assay [6], 26.7 µM; in assay [7] it was 16.2 µM. Also, the TGI in assay [9] worked out at 14.9 µM; in assay [10], 21.8 µM.
Take `O=C(Nc1cccc(-n2cc(-c3ccncc3)c(-c3ccc(O)c(Cl)c3)n2)c1)c1cccc(C(F)(F)F)c1`: the GI50 in assay [8] was 3.57 µM; in [2], 2.04 µM; in assay [3] it was 3.24 µM; in [4], 4.29 µM; in [5], 6.44 µM; in assay [6], 23.7 µM. The GI50 in assay [7] was 3.42 µM; in [9] it was 2.97 µM; in assay [10] it was 3.62 µM. For the same molecule, the TGI in assay [8] was more than 100 µM; in assay [2] it was 10.6 µM; in assay [3] it was more than 100 µM; in [4], more than 100 µM; in assay [5], more than 100 µM; in assay [6] it was more than 100 µM. The TGI in [7], in assay [9] and in assay [10] was more than 100 µM in each case.
In the case of `O=C1C=CC(=O)c2c(Cl)ccc(O)c21`, the TGI was 43 µM in assay [1]; 23.4 µM in assay [2]; 23.5 µM in assay [3]; more than 100 µM in [4]; 39 µM in [5]; more than 89.3 µM in assay [6]. Further, the TGI in assay [7] was more than 100 µM; in assay [9], 31.1 µM.
With `CC1CC/C(=C\c2ccc(Cl)cc2)c2nc(N)c(C#N)c(-c3ccc(Cl)cc3)c21` (stereo not given), the TGI in assay [1], in [8], in assay [2], in assay [3], in assay [4] and in [5] was more than 100 µM each time. In addition, the TGI in assay [6], in assay [9] and in assay [10] was more than 100 µM throughout.
For the molecule `Cc1csc(NC(=NCCN2CCOCC2)Nc2nc(C)cs2)n1`, the TGI in assay [1], in assay [2], in [3], in [4], in [5] and in assay [6] was more than 100 µM in each case. In addition, the TGI in assay [7] and in assay [9] was more than 100 µM in each case.
Regarding `COc1c(C)c(C/C=C(\C)CC/C=C(\C)CCC=C(C)C)c(OC)c(OC)c1OC`, the TGI in assay [1], in [8], in assay [3], in [4], in assay [5] and in [6] was more than 100 µM in each case. Further, the TGI in [7], in assay [9] and in assay [10] was more than 100 µM throughout.
As for `CC1OC2OC3C(OCC(O)C3O)OC(=O)[C@]34CCC(C)(C)CC3C3=CCC5[C@@]6(C)C[C@H](O)[C@H](OC7OC(CO)C(O)C(O)C7OC7OCC(OC(=O)CC(C)(O)CC(=O)OC1C(OC1OC(CO)C(O)C(O)C1O)C2O)C(O)C7O)[C@@](C)(CO)C6CC[C@@]5(C)[C@]3(C)CC4` (stereo not given in full), the TGI amounted to 11.4 µM in assay [8]; 25.2 µM in assay [2]; 16.5 µM in assay [3]; 14.9 µM in [4]; 23.3 µM in [5]; 18.9 µM in [6]. For the same molecule, the TGI in [7] came to 22.7 µM; in assay [9], 23.6 µM; in assay [10], 16.9 µM.
Take `COc1ccccc1CNCCCCCCCCCCCCN1C(=O)c2ccc3c4c(ccc(c24)C1=O)C(=O)N(CCCCCCCCCCCCNCc1ccccc1OC)C3=O`: the GI50 was more than 50 µM in [1], more than 50 µM in [5], more than 50 µM in assay [6] and more than 5 µM in assay [10]. The TGI in assay [1] is more than 50 µM; in assay [5], more than 50 µM; in assay [6], more than 50 µM; in [10] it was more than 5 µM.
Take `NC(=O)CO/N=C1/C(c2c(O)[nH]c3ccccc23)=Nc2ccccc21`: the TGI in assay [1], in assay [8], in assay [2], in [3], in assay [4] and in assay [5] was more than 100 µM throughout. Further, the TGI in [6], in [7] and in [10] was more than 100 µM throughout.
Take `Cc1cc2c(c(=O)n1C)SCC2`: the TGI in assay [8], in [2], in [3], in assay [4], in assay [5] and in [6] was more than 100 µM each time. In addition, the TGI in [7] and in assay [10] was more than 100 µM throughout.
On to `CC(C)(C)C1CC[C@H](O)[C@H]([C@H](O)CC2CC(=O)N(c3ccccc3)C(=O)C2)C1` (stereo not given in full), for which the TGI in assay [1], in assay [8], in assay [3], in [4], in assay [5] and in [6] was more than 100 µM in each case. For the same molecule, the TGI in assay [7], in assay [9] and in assay [10] was more than 100 µM in each case.
